Where a name gives a salt, the structure may show the parent alone.
Columns and labels:
Type in all cases: biochemical
[1] = target: T1, recombinant human MAO-A (monoamine oxidase-A) (Homo sapiens, UniProt P21397); experiment: Activity on recombinant human MAO-A, method similar to the VAP-1 assay; conditions: substrate 0.5 mM tyramine; read-out: Inhibitory Activity (IC50, nM) MAO-A
T1 construct: purchased Sigma-Aldrich
T1 sequence (P21397 1-527): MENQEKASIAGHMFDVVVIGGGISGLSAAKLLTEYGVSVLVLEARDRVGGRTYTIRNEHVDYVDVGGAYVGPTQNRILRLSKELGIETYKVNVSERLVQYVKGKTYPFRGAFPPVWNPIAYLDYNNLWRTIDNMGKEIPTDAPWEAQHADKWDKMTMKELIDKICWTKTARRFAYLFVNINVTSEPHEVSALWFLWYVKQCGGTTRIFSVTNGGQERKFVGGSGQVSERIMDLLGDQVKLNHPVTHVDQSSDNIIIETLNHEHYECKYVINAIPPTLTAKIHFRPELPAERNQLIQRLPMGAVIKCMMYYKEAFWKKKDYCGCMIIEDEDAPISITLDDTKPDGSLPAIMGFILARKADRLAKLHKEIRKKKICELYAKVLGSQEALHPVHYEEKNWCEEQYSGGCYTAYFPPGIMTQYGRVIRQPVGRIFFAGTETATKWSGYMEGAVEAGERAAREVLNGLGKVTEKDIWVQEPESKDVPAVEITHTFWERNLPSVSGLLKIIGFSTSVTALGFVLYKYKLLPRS
Procedure, shortened: (§1)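 HRP-coupled Amplex Red H2O2 assay, 50 mM sodium phosphate pH 7.4; compounds (8-point 1:3 series, final DMSO <1%) preincubated with enzyme 30 min at 37° C, then 200 uM Amplex Red, 1 U/mL HRP and substrate (MAO-A 0.5 mM tyramine; MAO-B 1 mM benzylamine) added. Resorufin fluorescence (ex 544/em 590 nm) read over 1-2 h; IC50 from four-parameter logistic fit.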

[2] = target: T2, recombinant human DAO (diamine oxidase) (Homo sapiens, UniProt P19801); experiment: Activity on recombinant human DAO, method similar to the VAP-1 assay; conditions: substrate 1 mM putrescine; read-out: Inhibitory Activity (IC50, nM) DAO
T2 construct: purchased R&D systems
T2 sequence (P19801 20-751): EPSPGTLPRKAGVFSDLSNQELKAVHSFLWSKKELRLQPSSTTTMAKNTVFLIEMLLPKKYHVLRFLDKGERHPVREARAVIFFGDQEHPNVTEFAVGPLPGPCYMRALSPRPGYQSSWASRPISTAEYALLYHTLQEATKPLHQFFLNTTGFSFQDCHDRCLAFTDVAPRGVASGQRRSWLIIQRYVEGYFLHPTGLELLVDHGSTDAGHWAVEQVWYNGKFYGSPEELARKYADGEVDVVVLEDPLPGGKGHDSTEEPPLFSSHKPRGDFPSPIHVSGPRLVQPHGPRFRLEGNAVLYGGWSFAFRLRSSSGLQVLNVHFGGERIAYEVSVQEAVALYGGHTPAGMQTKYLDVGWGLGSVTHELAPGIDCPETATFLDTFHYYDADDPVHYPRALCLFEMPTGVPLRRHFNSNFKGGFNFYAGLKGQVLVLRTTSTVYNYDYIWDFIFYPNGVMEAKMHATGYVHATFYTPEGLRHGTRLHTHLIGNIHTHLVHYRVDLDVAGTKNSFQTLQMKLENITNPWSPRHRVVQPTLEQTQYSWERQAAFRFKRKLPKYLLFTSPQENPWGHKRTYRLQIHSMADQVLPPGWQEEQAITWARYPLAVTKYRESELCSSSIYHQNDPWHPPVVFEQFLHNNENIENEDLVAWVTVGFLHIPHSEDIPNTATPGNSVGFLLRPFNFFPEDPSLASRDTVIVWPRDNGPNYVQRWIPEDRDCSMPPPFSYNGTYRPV
Procedure, shortened: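 Inhibition of recombinant human diamine oxidase (DAO, R&D systems) was assessed by the same approach as the VAP-1 assay, using 1 mM putrescine as substrate. Hydrogen peroxide formed was detected through an HRP-coupled Amplex Red reaction yielding fluorescent resorufin, read at 544 nm excitation and 590 nm emission. IC50 values came from four-parameter logistic fitting in GraphPad Prism.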

[3] = target: T3, recombinant human MAO-B (monoamine oxidase-B) (Homo sapiens, UniProt P27338); experiment: Activity on recombinant human MAO-B, method similar to the VAP-1 assay; conditions: substrate 1 mM benzylamine; read-out: Inhibitory Activity (IC50, nM) MAO-B
T3 construct: purchased Sigma-Aldrich
T3 sequence (P27338 1-520): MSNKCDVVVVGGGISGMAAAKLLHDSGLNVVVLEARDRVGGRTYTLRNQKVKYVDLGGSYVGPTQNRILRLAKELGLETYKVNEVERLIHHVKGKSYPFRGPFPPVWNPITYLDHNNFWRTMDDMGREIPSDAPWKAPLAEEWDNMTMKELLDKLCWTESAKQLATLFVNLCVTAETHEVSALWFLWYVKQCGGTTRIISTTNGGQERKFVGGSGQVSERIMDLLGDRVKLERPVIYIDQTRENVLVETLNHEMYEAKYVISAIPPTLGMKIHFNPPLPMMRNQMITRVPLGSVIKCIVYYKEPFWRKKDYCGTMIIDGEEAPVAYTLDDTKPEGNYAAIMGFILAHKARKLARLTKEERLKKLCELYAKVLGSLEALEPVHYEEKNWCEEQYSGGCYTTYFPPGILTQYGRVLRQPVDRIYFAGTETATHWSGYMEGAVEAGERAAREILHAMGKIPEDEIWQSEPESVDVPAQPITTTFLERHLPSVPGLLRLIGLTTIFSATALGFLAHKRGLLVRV
Procedure, shortened: as §1

recombinant human VAP-1 = target: T4, recombinant human VAP-1 (Homo sapiens, UniProt Q16853); experiment: Activity on recombinant human VAP-1, HRP-coupled Amplex Red hydrogen peroxide assay; conditions: substrate 1 mM benzylamine; compound incubated with enzyme at 37° C. for 30 minutes; pH 7.4; read-out: Inhibitory Activity (IC50, nM) human VAP-1
T4 construct: purchased R&D systems
T4 sequence (Q16853 1-763): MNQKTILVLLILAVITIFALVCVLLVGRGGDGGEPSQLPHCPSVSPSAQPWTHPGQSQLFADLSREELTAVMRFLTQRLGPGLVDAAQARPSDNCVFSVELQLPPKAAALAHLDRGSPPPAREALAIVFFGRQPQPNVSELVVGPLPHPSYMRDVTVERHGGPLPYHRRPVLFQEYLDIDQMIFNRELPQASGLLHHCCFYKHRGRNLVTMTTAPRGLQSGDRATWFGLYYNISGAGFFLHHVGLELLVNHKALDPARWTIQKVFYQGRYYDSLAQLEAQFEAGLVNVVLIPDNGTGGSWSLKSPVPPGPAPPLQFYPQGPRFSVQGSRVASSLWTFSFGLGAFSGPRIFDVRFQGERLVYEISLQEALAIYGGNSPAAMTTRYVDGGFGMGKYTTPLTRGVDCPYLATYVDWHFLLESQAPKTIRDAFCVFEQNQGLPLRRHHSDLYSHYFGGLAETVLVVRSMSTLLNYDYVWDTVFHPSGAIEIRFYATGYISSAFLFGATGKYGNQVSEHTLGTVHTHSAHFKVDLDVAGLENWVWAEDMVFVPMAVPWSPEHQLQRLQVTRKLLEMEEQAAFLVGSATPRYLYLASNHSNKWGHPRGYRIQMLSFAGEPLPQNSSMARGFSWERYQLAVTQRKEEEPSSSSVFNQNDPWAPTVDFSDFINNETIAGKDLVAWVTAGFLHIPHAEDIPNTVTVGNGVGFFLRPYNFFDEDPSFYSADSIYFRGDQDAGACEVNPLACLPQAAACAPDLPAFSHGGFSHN
Procedure, shortened: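 8-point 1:3 dilutions, final DMSO <1%; 30 min enzyme preincubation, 37 °C, pH 7.4 phosphate. Start: 1 mM benzylamine + 200 uM Amplex Red + 1 U/mL HRP. Read ex544/em590 over 1-2 h; % rate decrease vs DMSO control, 4-parameter logistic IC50.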

| SMILES | IC50 [1] | IC50 [2] | IC50 [3] | IC50 (recombinant human VAP-1) |
| --- | --- | --- | --- | --- |
| Cn1cncc1C#Cc1ccc(Cn2cnn(C/C(=C/F)CN)c2=O)s1 [Example 130, 2-[(2E)-2-(aminomethyl)-3-fluoroprop-2-en-1-yl]-4-(5-[(1-methyl-1H-imidazol-5-yl)ethynyl]thiophen-2-ylmethyl)-2,4-dihydro-3H-1,2,4-triazol-3-one hydrochloride] | 57400 nM | 1500 nM | 440 nM | 0.5 nM |
| Cn1cc(C#Cc2ccc(Cn3cnn(C/C(=C/F)CN)c3=O)s2)cn1 [Example 131, 2-[(2E)-2-(aminomethyl)-3-fluoroprop-2-en-1-yl]-4-(5-[(1-methyl-1H-pyrazol-4-yl)ethynyl]thiophen-2-ylmethyl)-2,4-dihydro-3H-1,2,4-triazol-3-one hydrochloride] | > 100000 nM | 1300 nM | 240 nM | 2.3 nM |
| NC/C(=C\F)Cn1ncn(Cc2ccc(C#CCN3CCS(=O)(=O)CC3)s2)c1=O [Example 132, 2-[(2E)-2-(aminomethyl)-3-fluoroprop-2-en-1-yl]-4-(5-[3-(1,1-dioxidothiomorpholin-4-yl)prop-1-yn-1-yl]thiophen-2-ylmethyl)-2,4-dihydro-3H-1,2,4-triazol-3-one hydrochloride] | > 100000 nM | 1400 nM | 2500 nM | 3.1 nM |
| NC/C(=C\F)Cn1ncn(Cc2ccc(C#Cc3ccc4c(c3)CCC(=O)N4)s2)c1=O [Example 133, 6-[2-[5-[[1-[(E)-2-(aminomethyl)-3-fluoro-allyl]-5-oxo-1,2,4-triazol-4-yl]methyl]-2-thienyl]ethynyl]-3,4-dihydro-1H-quinolin-2-one hydrochloride] | 49000 nM | 530 nM | 180 nM | 0.2 nM |
| NC/C(=C\F)Cn1ncn(Cc2ccc(C#Cc3ccc4c(c3)NCCO4)s2)c1=O [Example 134, 2-[(E)-2-(aminomethyl)-3-fluoro-allyl]-4-[[5-[2-(3,4-dihydro-2H-1,4-benzoxazin-6-yl)ethynyl]-2-thienyl]methyl]-1,2,4-triazol-3-one] | 7100 nM | 2100 nM | 300 nM | 2 nM |
| NC/C(=C\F)Cn1ncn(Cc2ccc(C#Cc3cnc4c(c3)NCCO4)s2)c1=O [Example 135, 2-[(E)-2-(aminomethyl)-3-fluoro-allyl]-4-[[5-[2-(2,3-dihydro-1H-pyrido[2,3-b][1,4]oxazin-7-yl)ethynyl]-2-thienyl]methyl]-1,2,4-triazol-3-one] | > 100000 nM | 1100 nM | 750 nM | 1.1 nM |
| NC/C(=C\F)Cn1ncn(Cc2ccc(C#Cc3ccc4c(n3)OCCN4)s2)c1=O [Example 136, 2-[(E)-2-(aminomethyl)-3-fluoro-allyl]-4-[[5-[2-(2,3-dihydro-1H-pyrido[2,3-b][1,4]oxazin-6-yl)ethynyl]-2-thienyl]methyl]-1,2,4-triazol-3-one hydrochloride] | 20000 nM | 790 nM | 640 nM | 1.5 nM |
| NC/C(=C\F)Cn1ncn(Cc2ccc(C#Cc3cnc4c(c3)OCCN4)s2)c1=O [Example 137, 2-[(E)-2-(aminomethyl)-3-fluoro-allyl]-4-[[5-[2-(3,4-dihydro-2H-pyrido[3,2-b][1,4]oxazin-7-yl)ethynyl]-2-thienyl]methyl]-1,2,4-triazol-3-one] | > 100000 nM | 1400 nM | 390 nM | 1.4 nM |
| NC/C(=C\F)Cn1ncn(Cc2ccc(C#Cc3cnc4c(c3)NC(=O)CO4)s2)c1=O [Example 138, 7-[2-[5-[[1-[(E)-2-(aminomethyl)-3-fluoro-allyl]-5-oxo-1,2,4-triazol-4-yl]methyl]-2-thienyl]ethynyl]-1H-pyrido[2,3-b][1,4]oxazin-2-one hydrochloride] | > 100000 nM | 470 nM | 2300 nM | 0.2 nM |
| NC/C(=C\F)Cn1ncn(Cc2ccc(C#Cc3cnc4c(c3)OCC(=O)N4)s2)c1=O [Example 139, 7-[2-[5-[[1-[(E)-2-(aminomethyl)-3-fluoro-allyl]-5-oxo-1,2,4-triazol-4-yl]methyl]-2-thienyl]ethynyl]-4H-pyrido[3,2-b][1,4]oxazin-3-one hydrochloride] | > 100000 nM | 290 nM | 73 nM | 0.5 nM |
| NC/C(=C\F)Cn1ncn(CCc2cccs2)c1=O [Example 141, 2-[(2E)-2-(aminomethyl)-3-fluoroprop-2-en-1-yl]-4-[2-(thiophen-2-yl)ethyl]-2,4-dihydro-3H-1,2,4-triazol-3-one] | > 100000 nM | 4200 nM | > 10000 nM | 9.2 nM |
| Cn1cc(-c2ccc(Cn3cnn(C/C(=C/F)CN)c3=O)s2)cn1 [Example 142, 2-[(2E)-2-(aminomethyl)-3-fluoroprop-2-en-1-yl]-4-{[5-(1-methyl-1H-pyrazol-4-yl)thiophen-2-yl]methyl}-2,4-dihydro-3H-1,2,4-triazol-3-one] | > 100000 nM | 11000 nM | 1000 nM | 2.9 nM |

From patent US11780830B2, “Triazolone derivatives or salts thereof and pharmaceutical compositions comprising the same” (YUHAN CORPORATION, priority 2018, dated 2023)
